Assay results from patent US20200339691A1, “PROTEINACEOUS MOLECULES AND USES THEREFOR” (priority 2018, published 2020).
Where a SMILES comes first, the peptide text is derived from it. The star is where a group is joined. Myristoyl = CCCCCCCCCCCCCC(=O)*

Legend:
[1] = tested on: CD44^hiCD24^lo CSCs in MDA-MB-231 cells; assay: FACS analysis of CD44^hiCD24^lo cancer stem cells in MDA-MB-231 cells treated with P1 analogues; format: cell-based, human; details: 50 μM peptide, 48 hours; for CD44^hiCD24^lo CSCs (%) / COI, Live Single CD44^hiCD24^lo CSCs (Cell Count): n = 1; for Average Inhibition of CSCs (%) / CD44^hiCD24^lo CSCs (%) Repeat 1 / CD44^hiCD24^lo CSCs (%) Repeat 2 / CD44^hiCD24^lo CSCs (%) Repeat 3: n = 3
Description: Analogues of P1 (Table 6) were designed and synthesized in accordance with the procedure of Example 5. The ability of these analogues to inhibit cancer stem cells was determined using FACS analysis on MDA-MB-231 cells, which constitutively contain approximately 90% CD44^hiCD24^lo cancer stem cells, treated with the peptides.
(§1) Non-adherent cells were removed during the washing steps.

MDA-MB-231 cells = format: cell-based, human; details: for killing of total MDA-MB-231 cells: not only the CSCs
Text: as §1

[2] = tested on: CD44^hiCD24^lo CSCs in MCF7 cells; assay: FACS analysis of CD44^hiCD24^lo CSCs in MCF7 cells; format: cell-based, human; details: 50 μM peptide, 48 hours
Description: (§2) P1 Analogues were synthesized in accordance with the procedure of Example 5. 4×10^4 MDA-MB-231 cells or 1×10^4 induced or non-induced MCF7 cells were seeded in a 12 well plate with 1 mL complete media overnight. Induced MCF7 cells were prepared by stimulating cells with PMA/TGF-β and incubating for 12 hours. Cells were treated with 50 μM test peptide (dissolved in water) for 48 hours. Cells were then washed twice with 1 mL PBS and harvested by trypsinisation. Non-adherent cells were removed during the washing steps. Adherent cells were collected, and were subsequently stained with anti-human CD44, CD24 and Hoechst 33342 antibodies on ice for 30 mins. FACS was performed on BD FACS LSRII to measure the percentage of CD44^hiCD24^lo CSCs by dividing CD44^hiCD24^lo events by total live cell counts (Hoechst negative population) (as described in Fillmore and Kuperwasser (2007) Breast Cancer Res, 9: 303). The percentage of viable cells was calculated by dividing total live cell events by total single cells as described previously (Siemann and Keng (1986), Cancer Res, 46: 3556-3559).

MCF7 cells = tested on: MCF7 cells
Description: as §2

induced MCF7 cells = assay: FACS CSC inhibition in induced MCF7 cells; format: cell-based, human; details: induced MCF7 cells (PMA/TGF-β), 50 μM peptide, 48 hours
Description: as §2

[3] = MCF7 cells, 50 μM peptide, 48 hours
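Wherever COI, Live Single Cells (Cell Count) is given: live means Hoechst-negative events among single cells.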

Compound | Inhibition of CSCs (%) Repeat 1 [1] [%] | Inhibition of CSCs (%) Repeat 2 [1] [%] | Inhibition of CSCs (%) Repeat 3 [1] [%] | CD44^hiCD24^lo CSCs (%) [1] [%] | COI, Live Single CD44^hiCD24^lo CSCs (Cell Count) [1] | Average Inhibition of CSCs (%) [1] [%] | CD44^hiCD24^lo CSCs (%) Repeat 1 [1] [%] | CD44^hiCD24^lo CSCs (%) Repeat 2 [1] [%] | CD44^hiCD24^lo CSCs (%) Repeat 3 [1] [%] | COI (Cell Count) (MDA-MB-231 cells; 50 μM peptide, 48 hours, n = 1) | COI, Live Single Cells (Cell Count) (MDA-MB-231 cells; 50 μM peptide, 48 hours, n = 1) | COI, Single (Cell Count) (MDA-MB-231 cells; 50 μM peptide, 48 hours, n = 1) | Total Cell Count (MDA-MB-231 cells; 50 μM peptide, 48 hours, n = 1) | killing of total MDA-MB-231 cells (MDA-MB-231 cells) | CD44^hiCD24^lo CSC % [2] [%] | COI/Single Cells/Live/CD44^hiCD24^lo CSCs Count [2] | COI Count (MCF7 cells; [3]) | COI/Single Cell Count (MCF7 cells; [3]) | COI/Single Cells/Live Count (MCF7 cells; [3]) | Total Count (MCF7 cells; [3]) | further results
CCCCCCCCCCCCCC(=O)N[C@@H](CC(C)C)C(=O)N[C@@H](CCCCN)C(=O)N[C@@H](Cc1ccccc1)C(=O)N[C@H](C(=O)N[C@@H](Cc1ccccc1)C(=O)N[C@@H](CCCNC(=N)N)C(=O)N[C@@H](CC(C)C)C(=O)N[C@@H](CCCNC(=N)N)C(=O)N[C@@H](CCCCN)C(=O)NCC(=O)N[C@@H](CCCNC(=N)N)C(=O)N[C@@H](CCSC)C(=O)N[C@@H](CCSC)C(=O)N[C@@H](CC(=O)O)C(=O)N[C@H](C(=O)N[C@@H](CCCCN)C(=O)N[C@@H](CCCCN)C(N)=O)C(C)C)[C@@H](C)CC [Peptide 2853805, Myristoyl-LKFIFRLRKGRMMDVKK-NH2] (Myristoyl-LKFIFRLRKGRMMDVKK-NH2) | 100.00 | 100.00 | 100.00 | 0.00 | 0 | 100.00 | 0.00 | 0.00 | 0.00 | 52 | 1 | 32 | 3221 | killed the majority of the total MDA-MB-231 cells | 2.50 | 108 | 5356 | 4637 | 4320 | 10000 | CSC inhibition (%) (induced MCF7 cells): 64.52%
CCCCCCCCCCCCCC(=O)N[C@H](C(=O)N[C@@H](Cc1ccccc1)C(=O)N[C@H](C(=O)N[C@@H](Cc1ccccc1)C(=O)N[C@@H](CCCNC(=N)N)C(=O)N[C@@H](CC(C)C)C(=O)N[C@@H](CCCNC(=N)N)C(=O)N[C@@H](CCCCN)C(=O)NCC(=O)N[C@@H](CCCNC(=N)N)C(=O)N[C@@H](CCSC)C(=O)N[C@@H](CCSC)C(=O)N[C@@H](C)C(=O)N[C@H](C(=O)N[C@@H](CCCCN)C(=O)N[C@@H](CCCCN)C(N)=O)C(C)C)[C@@H](C)CC)[C@@H](C)O [Peptide 2815314, Myristoyl-TFIFRLRKGRMMAVKK-NH2] (Myristoyl-TFIFRLRKGRMMAVKK-NH2) | 100.00 | 100.00 | 100.00 | 0.00 | 0 | 100.00 | 0.00 | 0.00 | 0.00 | 10 | 2 | 9 | 5611 | killed the majority of the total MDA-MB-231 cells | 2.75 | 145 | 6564 | 5443 | 5276 | 10000 | CSC inhibition (%) (induced MCF7 cells): 61.00%
CCCCCCCCCCCCCC(=O)N[C@@H](CC(C)C)C(=O)N[C@H](C(=O)N[C@@H](Cc1ccccc1)C(=O)N[C@H](C(=O)N[C@@H](Cc1ccccc1)C(=O)N[C@@H](CCCNC(=N)N)C(=O)N[C@@H](CC(C)C)C(=O)N[C@@H](CCCNC(=N)N)C(=O)N[C@@H](CCCCN)C(=O)NCC(=O)N[C@@H](CCCNC(=N)N)C(=O)N[C@@H](CCSC)C(=O)N[C@@H](CCSC)C(=O)N[C@@H](CC(=O)O)C(=O)N[C@@H](CCCCN)C(=O)N[C@@H](CCCCN)C(=O)N[C@@H](CCCCN)C(N)=O)[C@@H](C)CC)[C@@H](C)O [Peptide 2853839, Myristoyl-LTFIFRLRKGRMMDKKK-NH2] (Myristoyl-LTFIFRLRKGRMMDKKK-NH2) | 100.00 | 100.00 | 100.00 | 0.00 | 0 | 100.00 | 0.00 | 0.00 | 0.00 | 12 | 2 | 10 | 619 | killed the majority of the total MDA-MB-231 cells | 1.14 | 25 | 3128 | 2294 | 2200 | 10000 | CSC inhibition (%) (induced MCF7 cells): 83.87%
CCCCCCCCCCCCCC(=O)N[C@H](C(=O)N[C@@H](Cc1ccccc1)C(=O)N[C@H](C(=O)N[C@@H](Cc1ccccc1)C(=O)N[C@@H](CCCNC(=N)N)C(=O)N[C@@H](CC(C)C)C(=O)N[C@@H](CCCNC(=N)N)C(=O)N[C@@H](CCCCN)C(=O)NCC(=O)N[C@@H](CCCNC(=N)N)C(=O)N[C@@H](C)C(=O)N[C@@H](CCSC)C(=O)N[C@@H](CC(=O)O)C(=O)N[C@H](C(=O)N[C@@H](CCCCN)C(=O)N[C@@H](CCCCN)C(N)=O)C(C)C)[C@@H](C)CC)[C@@H](C)O [Peptide 2815312, Myristoyl-TFIFRLRKGRAMDVKK-NH2] (Myristoyl-TFIFRLRKGRAMDVKK-NH2) | 100.00 | 100.00 | 100.00 | 0.00 | 0 | 100.00 | 0.00 | 0.00 | 0.00 | 9 | 6 | 7 | 2993 | killed the majority of the total MDA-MB-231 cells | 3.28 | 142 | 5333 | 4517 | 4331 | 10000 | CSC inhibition (%) (induced MCF7 cells): 53.47%
CCCCCCCCCCCCCC(=O)N[C@@H](CC(C)C)C(=O)N[C@H](C(=O)N[C@@H](Cc1ccccc1)C(=O)N[C@H](C(=O)N[C@@H](Cc1ccccc1)C(=O)N[C@@H](CCCNC(=N)N)C(=O)N[C@@H](CC(C)C)C(=O)N[C@@H](CC(C)C)C(=O)N[C@@H](CCCCN)C(=O)NCC(=O)N[C@@H](CCCNC(=N)N)C(=O)N[C@@H](CCSC)C(=O)N[C@@H](CCSC)C(=O)N[C@@H](CC(=O)O)C(=O)N[C@H](C(=O)N[C@@H](CCCCN)C(=O)N[C@@H](CCCCN)C(N)=O)C(C)C)[C@@H](C)CC)[C@@H](C)O [Peptide 2853825, Myristoyl-LTFIFRLLKGRMMDVKK-NH2] (Myristoyl-LTFIFRLLKGRMMDVKK-NH2) | 100.00 | 100.00 | 100.00 | 0.00 | 0 | 100.00 | 0.00 | 0.00 | 0.00 | 18 | 0 | 15 | 1583 | killed the majority of the total MDA-MB-231 cells | 0.00 | 0 | 72 | 35 | 0 | 10000 | Viable Cells (%) (MDA-MB-231 cells; 50 μM peptide, 48 hours, n = 1): 0.00%; cytotoxicity to MCF7 cells (MCF7 cells): cytotoxic; % Viable Cells (MCF7 cells; [3]): 0.00%; CSC inhibition (%) (induced MCF7 cells): Cytotoxic
